Test results as given in ChEMBL document CHEMBL1132460, “Affinity and selectivity of matrix metalloproteinase inhibitors: a chemometrical study from the perspective of ligands and proteins” (J Med Chem, 1999).

How the values were obtained:
[1] = Affinity ratio of IC50 of MMP-3 to IC50 of MMP-8
[2] = biological target: Stromelysin-1 (Homo sapiens, UniProt P08254); experiment: Inhibitory concentration against human matrix metalloprotease-3 (MMP-3)
[3] = biological target: Neutrophil collagenase (Homo sapiens, UniProt P22894); experiment: Inhibitory concentration against human matrix metalloprotease-8 (human neutrophil collagenase, MMP-8)
Sequence of Neutrophil collagenase (P22894 whole entry): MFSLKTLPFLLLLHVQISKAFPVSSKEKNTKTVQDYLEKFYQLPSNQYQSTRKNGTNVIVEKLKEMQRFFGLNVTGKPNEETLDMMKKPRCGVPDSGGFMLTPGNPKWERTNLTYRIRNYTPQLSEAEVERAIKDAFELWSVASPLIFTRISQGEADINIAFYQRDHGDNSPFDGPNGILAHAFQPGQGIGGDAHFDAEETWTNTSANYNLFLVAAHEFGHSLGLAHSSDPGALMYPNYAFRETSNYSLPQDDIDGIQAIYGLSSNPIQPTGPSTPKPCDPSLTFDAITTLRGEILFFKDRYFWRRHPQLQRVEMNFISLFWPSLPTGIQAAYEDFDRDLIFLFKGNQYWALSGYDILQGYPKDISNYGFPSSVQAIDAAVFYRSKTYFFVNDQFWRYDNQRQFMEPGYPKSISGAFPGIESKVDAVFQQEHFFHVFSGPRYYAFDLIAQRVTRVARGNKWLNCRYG

Sequence of Stromelysin-1 (P08254 whole entry): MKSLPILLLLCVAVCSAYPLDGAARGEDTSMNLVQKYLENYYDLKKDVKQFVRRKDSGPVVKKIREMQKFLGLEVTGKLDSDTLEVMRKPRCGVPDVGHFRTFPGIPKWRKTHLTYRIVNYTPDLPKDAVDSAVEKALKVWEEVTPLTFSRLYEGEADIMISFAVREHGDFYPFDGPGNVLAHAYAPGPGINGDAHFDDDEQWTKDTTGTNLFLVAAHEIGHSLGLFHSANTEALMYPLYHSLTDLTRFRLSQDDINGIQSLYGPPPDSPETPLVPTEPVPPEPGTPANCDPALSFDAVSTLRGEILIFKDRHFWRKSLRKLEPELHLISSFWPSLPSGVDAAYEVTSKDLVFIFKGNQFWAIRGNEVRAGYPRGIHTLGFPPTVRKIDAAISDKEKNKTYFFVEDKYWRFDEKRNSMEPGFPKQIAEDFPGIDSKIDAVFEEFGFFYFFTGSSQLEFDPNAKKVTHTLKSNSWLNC

log10(IC50 MMP-3/IC50 MMP-8) [1] | IC50 ([2]; read-out: IC50) [nM] | IC50 [3] [nM] | IC50 [2] [nM l-1] | Structure (SMILES)
0.8 | 50 | 8 | – | O=C(NO)C1Cc2ccccc2CN1S(=O)(=O)c1ccc(-c2ccon2)s1 (stereo not drawn)
– | 30 | – | – | COc1ccc(S(=O)(=O)N2Cc3cc(NC(=O)[C@H](C)N)ccc3CC2C(=O)NO)cc1 (stereo partly drawn)
– | 10 | – | – | COc1ccc(S(=O)(=O)N2Cc3cc(N)ccc3CC2C(=O)NO)cc1 (stereo not drawn)
– | – | 3000 | 10000 | O=C(NO)C1Cc2ccccc2CN1S(=O)(=O)Cc1ccccc1 (stereo not drawn)
– | – | 1000 | 10000 | CSc1nccc(-c2ccc(S(=O)(=O)N3Cc4ccccc4CC3C(=O)O)s2)n1 (stereo not drawn)
0.85 | 7000 | – | – | COc1ccc(S(=O)(=O)N2Cc3ccccc3C[C@H]2C(=O)NO)cc1
– | 5000 | 600 | – | O=C(O)C1Cc2ccccc2CN1S(=O)(=O)c1ccc(Br)cc1 (stereo not drawn)
0.7 | 20 | – | – | COc1ccc(S(=O)(=O)N2Cc3ccccc3C[C@@H]2C(=O)NO)cc1
1 | – | – | – | COc1ccc(S(=O)(=O)N2Cc3cc([N+](=O)[O-])ccc3CC2C(=O)NO)cc1 (stereo not drawn)
1 | – | 2 | – | O=C(NO)C1Cc2ccccc2CN1S(=O)(=O)c1ccc(-c2ccccc2)cc1 (stereo not drawn)
– | 200 | 9 | – | O=C(O)C1Cc2ccccc2CN1S(=O)(=O)c1ccc(Oc2ccccc2)cc1 (stereo not drawn)
0.82 | – | – | – | COc1ccc(S(=O)(=O)N2Cc3[nH]c4ccccc4c3C[C@@H]2C(=O)NO)cc1
0.7 | – | – | – | COc1ccc(S(=O)(=O)N2Cc3[nH]cnc3C[C@@H]2C(=O)NO)cc1
1.22 | – | – | – | CCOC(=O)Nc1ccc(S(=O)(=O)N2Cc3ccccc3CC2C(=O)NO)cc1 (stereo not drawn)
0.82 | 20 | – | – | COc1ccc(S(=O)(=O)N2Cc3ncn(C)c3C[C@@H]2C(=O)NO)cc1
– | 50 | 20 | – | O=C(O)C1Cc2ccccc2CN1S(=O)(=O)CCc1ccc(-c2ccccc2)cc1 (stereo not drawn)
– | 600 | 90 | – | O=C(O)C1Cc2ccccc2CN1S(=O)(=O)c1ccc(-n2nccn2)cc1 (stereo not drawn)

log10(IC50 MMP-3/IC50 MMP-8) [1] | IC50 ([2]; read-out: IC50) [nM] | IC50 [3] [nM] | IC50 [2] [nM l-1] | Structure (SMILES)
1.3 | – | – | – | O=C(O)[C@H]1Cc2c([nH]c3ccccc23)CN1S(=O)(=O)c1ccc(Oc2ccccc2)cc1
– | 200 | 20 | – | O=C(O)C1Cc2ccc(O)cc2CN1S(=O)(=O)c1ccc(-c2ccc(Cl)cc2)cc1 (stereo not drawn)
– | 2000 | 90 | – | O=C(O)C1Cc2ccccc2CN1S(=O)(=O)c1ccc(-c2ccccn2)s1 (stereo not drawn)
– | – | 200 | 10000 | O=C(Nc1cccc(S(=O)(=O)N2Cc3ccccc3CC2C(=O)NO)c1)c1ccccc1O (stereo not drawn)
– | 2000 | 200 | – | O=C(O)C1Cc2ccccc2CN1S(=O)(=O)c1ccc(Sc2ccccc2)cc1 (stereo not drawn)
– | 500 | 20 | – | O=C(O)C1Cc2ccccc2CN1S(=O)(=O)c1ccc(Oc2ccc(Cl)cc2)cc1 (stereo not drawn)
– | 2000 | 600 | – | O=C(O)C1Cc2ccccc2CN1S(=O)(=O)c1ccc(-c2ccon2)s1 (stereo not drawn)
– | 400 | 800 | – | O=C(Nc1ccc(S(=O)(=O)N2Cc3ccccc3CC2C(=O)NO)cc1)OCc1ccccc1 (stereo not drawn)
– | 700 | 60 | – | O=C(O)C1Cc2ccccc2CN1S(=O)(=O)c1ccc(/C=C/c2ccccc2)cc1 (stereo not drawn)
– | 300 | 40 | – | CNC(=O)c1ccc(Oc2ccc(S(=O)(=O)N3Cc4ccccc4CC3C(=O)O)cc2)cc1 (stereo not drawn)
– | 300 | 10 | – | O=C(O)C1Cc2ccccc2CN1S(=O)(=O)c1ccc(-c2ccc(C(F)(F)F)cc2)cc1 (stereo not drawn)
– | 1000 | 10 | – | N#Cc1ccc(Oc2ccc(S(=O)(=O)N3Cc4ccccc4CC3C(=O)O)cc2)cc1 (stereo not drawn)
– | 800 | 80 | – | O=C(O)C1Cc2ccccc2CN1S(=O)(=O)c1ccc(-c2nc3ccccc3o2)cc1 (stereo not drawn)
0.63 | – | – | – | O=C(NO)[C@H]1Cc2c([nH]c3ccccc23)CN1S(=O)(=O)c1ccc(N2CCOCC2)cc1
0.85 | – | – | – | CC(=O)Nc1ccc(S(=O)(=O)N2Cc3ccccc3CC2C(=O)NO)cc1 (stereo not drawn)
– | 3000 | 300 | – | O=C(c1ccccc1)c1ccc(S(=O)(=O)N2Cc3ccccc3CC2C(=O)O)cc1 (stereo not drawn)
